Experimental data published in article PMC6155662, “Trypanocidal Activity of Quinoxaline 1,4 Di-N-oxide Derivatives as Trypanothione Reductase Inhibitors” (Molecules : A Journal of Synthetic Chemistry and Natural …, 2017).
Read-outs that look alike come from different tables or passages of the source.

Tests used:
recombinant T. cruzi TR = biological target: T1, recombinant T. cruzi TR (Trypanosoma cruzi, UniProt P28593); test: TR enzyme inhibition (NADPH consumption at 340 nm); format: biochemical; conditions: for inhibition at 20 µM: inhibitor 20 µM; for inhibition at 40 µM: inhibitor 40 µM; for inhibition at 60 µM: inhibitor 60 µM; for inhibition at 80 µM: inhibitor 80 µM, T-085 precipitates in the assay at 80 µM; for inhibition at 100 µM: inhibitor 100 µM
T1 construct: made in house
T1 sequence (P28593 whole entry): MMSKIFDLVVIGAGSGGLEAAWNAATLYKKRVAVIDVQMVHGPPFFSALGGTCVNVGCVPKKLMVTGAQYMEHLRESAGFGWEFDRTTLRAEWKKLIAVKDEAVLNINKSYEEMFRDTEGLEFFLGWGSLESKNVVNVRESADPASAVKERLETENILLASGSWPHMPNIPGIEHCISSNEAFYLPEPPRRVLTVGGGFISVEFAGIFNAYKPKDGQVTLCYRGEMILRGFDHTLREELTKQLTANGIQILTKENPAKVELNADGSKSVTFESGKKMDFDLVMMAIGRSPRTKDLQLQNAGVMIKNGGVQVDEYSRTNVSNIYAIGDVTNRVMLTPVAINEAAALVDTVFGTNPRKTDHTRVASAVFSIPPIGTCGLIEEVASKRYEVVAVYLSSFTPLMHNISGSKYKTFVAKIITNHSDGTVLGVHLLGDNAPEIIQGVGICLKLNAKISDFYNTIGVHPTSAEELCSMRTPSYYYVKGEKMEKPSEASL
Method: Trypanothione disulfide (TS2) and recombinant T. cruzi TR were prepared following published procedures. Recombinant human glutathione reductase (GR) was kindly provided by Dr. Heiner Schirmer, Heidelberg Germany. Stock solutions (5 mM) of the inhibitors were prepared in DMSO. The kinetic analyses were conducted using a Jasco V650 spectrophotometer. All enzymatic tests were performed in polystyrene optical cuvettes (10 × 4 × 45 mm). TR activity was measured at 25 °C in a total volume of 1 mL TR assay buffer (40 mM HEPES, 1 mM EDTA, pH 7.5 [47]) containing 100 μM NADPH and 5–10 mU enzyme in the absence and presence of the inhibitor. Each assay contained a total of 5% DMSO. The reaction was started by adding TS2 and NADPH consumption was followed at 340 nm.
Five compound concentrations were used ranging from 100–5 μM. All measurements were performed twice in three independent series. Enzyme activity was plotted versus increasing inhibitor concentrations. IC50 values were calculated using the four-parameter equation model 205 and the option “unlock” from the XLfit add-in (IDBS, Guildford, United Kingdom) for Excel (Microsoft Corporation, Redmond, WA, USA).
The type of inhibition and the inhibitor constants were derived from Lineweaver-Burk plot. The activity of TR was measured in the absence and presence of two to three constant concentrations of inhibitor varying the concentration of TS2 (20, 40, 60, 100 and 200 µM). The inhibitory constant Ki was calculated from the direct plot using nonlinear least-squares data fitting in Excel spreadsheet.

[1] = test system: bloodstream trypomastigotes NINOA and INC-5 of T. cruzi; design: method as in PMID 24691716; conditions: 5 µg/mL (M2 = 14.73 µM, M8 = 17.98 µM, M6 = 14.91 µM); NINOA and INC-5 bloodstream trypomastigotes; cited from earlier work
[2] = Cytotoxicity assay (Alamar Blue) on macrophages; format: cell-based, murine; conditions: mouse, J774A.1 macrophages, mean and SD of triplicate
Method: The murine macrophage cell line J774.A1 was maintained in culture flasks with RPMI 1640 medium supplemented with 10% FBS, 1% MEM-NEAA medium (Gibco) and 100 U/mL antibiotic-antifungal mixture (Gibco). Cells were incubated at 37 °C with 5% CO2 and humidity. Trypsinized J774.A1 macrophages were washed and viability was assessed by the trypan blue dye (Sigma-Aldrich, Toluca, Edo de Mexico, Mexico) exclusion assay. In a 96-well microplate, 50,000 macrophages were seeded per well and a dose-response assay was performed. Compounds were evaluated using six-fold serial dilutions ranging from 100 µg/mL to 0.3 µg/mL of final concentration. Each compound was tested in triplicate. After 20 h incubation, Alamar Blue was added (10% v/v) and cells were incubated for an additional 4 h period. Results were obtained as previously described and CC50 was calculated. As a negative control of cytotoxicity, cells were incubated only in the presence of 0.1% DMSO [39, 40].

[3] = test system: T. cruzi INC-5 epimastigotes; test: Viability (MTT) assay on T. cruzi epimastigotes; format: cell-based, Trypanosoma cruzi; conditions: Trypanosoma cruzi, 24 h, mean and SD of triplicate
Method: In this study, two strains of T. cruzi isolated in Mexico were used. […] Epimastigotes were cultured in vitro in liver infusion-tryptose (LIT) medium supplemented with 10% heat inactivated fetal bovine serum (FBS) (Gibco) and 100 U/mL penicillin-streptomycin (In vitro S.A.), and incubated at 27 °C. CD1 mice, aged 6–8 weeks, were infected with T. cruzi to obtain bloodstream trypomastigote samples.
Viability assays of T. cruzi epimastigotes using 3-(4,5-dimethylthiazol-2-yl)-2,5-diphenyltetrazolium bromide (MTT) were performed. Briefly, the parasites were harvested during the exponential growth phase for a period of five days. In a 96-well microplate 1x10^6 epimastigotes were deposited in brain-heart infusion (BHI) medium supplemented with 10% FBS and 100 U/mL antibiotic-antifungal mixture (Gibco). […] Each well reached a final volume of 100 µL. Each condition was assessed in triplicate. The microplate was incubated for 24 h at 27 °C in darkness. Afterwards, 10 μL of a 5 mg/mL MTT solution was added and the plate was incubated for 20 h at 27 °C. Then 200 μL of 10% dodecyl sulfate (SDS)/0.1% HCl solution was added to dissolve formazan salts; the plate was incubated an additional 4 h. Finally, the plate was read at 570 nm in a spectrophotometer (Multiskan EX Thermo Electron, Taipei, Taiwan). The amount of viable cells was proportional to the amount of formazan produced. […] Later the results were converted to micromolar units. […] As a […] control, parasites were incubated only in culture medium with a 1% DMSO concentration, corresponding to the highest sample dilution of DMSO [34, 35, 36].

[4] = test system: T. cruzi bloodstream trypomastigotes INC-5 strain; test: microbe, parasite or virus in culture; format: cell-based; conditions: Trypanosoma cruzi; 50 μg/mL, 24 h at 4 °C, infected mouse blood; read-out: % Lysis at 50 μg/mL INC-5 Strain
Method: (§1) In this study, two strains of T. cruzi isolated in Mexico were used. T. cruzi NINOA strain (MHOM/MX/1994/NINOA) was obtained from a patient with acute Chagas disease and T. cruzi INC-5 (MHOM/MX/1994/INC5) was isolated from a patient in the chronic phase of the disease. Epimastigotes were cultured in vitro in liver infusion-tryptose (LIT) medium supplemented with 10% heat inactivated fetal bovine serum (FBS) (Gibco) and 100 U/mL penicillin-streptomycin (In vitro S.A.), and incubated at 27 °C. CD1 mice, aged 6–8 weeks, were infected with T. cruzi to obtain bloodstream trypomastigote samples. Animal experiments were performed according to Norma Oficial Mexicana (NOM-062-Z00-1999) published on 22 August, 2009.
(§2) CD1 female mice 6–8 weeks old were infected with T. cruzi bloodstream trypomastigotes of the INC-5 and NINOA strains. The course of infection continued for 4–6 weeks. At the peak of parasitemia blood was obtained by cardiac puncture using sodium heparin as an anticoagulant. The blood was adjusted to 1 × 10^6 bloodstream trypomastigotes/mL.
(§3) In each well of the 96-well plate, 195 μL of infected blood and 5 μL of quinoxaline 1,4-di-N-oxide derivatives or reference drug dilutions were seeded, with each well reaching a final volume of 200 µL. Each assay was performed in triplicate. Initially, all compounds were tested at 50 μg/mL. […] As a negative control of lysis, wells with untreated blood trypomastigotes were used, and as a positive control, wells with the reference drugs were used. The microplates were incubated at 4 °C for 24 h. Bloodstream trypomastigotes were quantified by the method of Brener-Pizzi, 5 μL of blood were placed on a slide and covered with a coverslip 13 × 13 mm. The mobile protozoa were counted in 15 fields at 40× magnification using an optical microscope. The percentage lysis was determined by comparing the remaining trypomastigotes against the negative control. LC50 was determined with the Probit statistical tool. The results were later converted to micromolar units.

[5] = test system: T. cruzi bloodstream trypomastigotes NINOA strain; test: microbe, parasite or virus in culture; format: cell-based; conditions: Trypanosoma cruzi; 50 μg/mL, 24 h at 4 °C, infected mouse blood; read-out: % Lysis at 50 μg/mL NINOA Strain
Method: as §1, §2, §3

[6] = 40 µM TS2, read-out: % Inhibition of TR at 40 µM [TS2]
[7] = 100 µM TS2, read-out: % Inhibition of TR at 100 µM [TS2]

IC50 [3] [µM] | Structure (SMILES) | CC50 at 24 h [2] [µM] | killing at 50 µg/mL [4] [%] | killing at 50 µg/mL [5] [%] | other results
– | COC(=O)c1ccc2c(c1)[n+]([O-])c(C(=O)c1ccccc1)c(C)[n+]2[O-] [Compound T-003] | – | – | – | inhibition at 20 µM (recombinant T. cruzi TR; [6]): 6.6%; inhibition at 20 µM (recombinant T. cruzi TR; [7]): 6%; inhibition at 40 µM (recombinant T. cruzi TR; [6]): 9%; inhibition at 40 µM (recombinant T. cruzi TR; [7]): 10%; inhibition at 60 µM (recombinant T. cruzi TR; [6]): 14.8%; inhibition at 60 µM (recombinant T. cruzi TR; [7]): 12%; inhibition at 80 µM (recombinant T. cruzi TR; [6]): 20.5%; inhibition at 80 µM (recombinant T. cruzi TR; [7]): 18%; inhibition at 100 µM (recombinant T. cruzi TR; [6]): 23.8%; inhibition at 100 µM (recombinant T. cruzi TR; [7]): 19.3%; % lysis at 5 µg/mL [1]: about 50%
155 ± 12.3 | CCCOC(=O)c1ccc2c(c1)[n+]([O-])c(C(=O)OCC)c(C)[n+]2[O-] [Compound T-090, n-Propil ethyl-3-methylquinoxaline-2,7-dicarboxylate 1,4-di-N-oxide] | 146 ± 9.2 | 47.3 ± 3.3 | 28.6 ± 3.1 | –
> 137 | CCCOC(=O)c1ccc2c(c1)[n+]([O-])c(C(=O)OC(C)(C)C)c(C)[n+]2[O-] [Compound T-091, n-Propil tert-butyl-3-methylquinoxaline-2,7-dicarboxylate 1,4-di-N-oxide] | > 273 | 8.15 ± 2.2 | 7.3 ± 3.3 | –
> 130 | Cc1c(C(=O)Nc2ccccc2)[n+]([O-])c2cc(C(=O)OC(C)C)ccc2[n+]1[O-] [Compound T-097, Isopropyl 2-phenylamide-3-methylquinoxaline-7-carboxylate 1,4-di-N-oxide] | > 261 | 12.4 ± 5.2 | 12.2 ± 10.9 | –
142 ± 8.3 | Cc1c(C(=O)c2ccccc2)[n+]([O-])c2cc(C(=O)OC(C)C)ccc2[n+]1[O-] [Compound T-098, Isopropyl 2-benzoyl-3-methylquinoxaline-7-carboxylate 1,4-di-N-oxide] | 140 ± 8.1 | 0.34 ± 0.6 | 6.89 ± 5.8 | –
91.7 ± 10.5 | CC(C)OC(=O)c1ccc2c(c1)[n+]([O-])c(C(=O)C(C)(C)C)c(C(C)(C)C)[n+]2[O-] [Compound T-107, Isopropyl 2-(tert-butyl-2-carbonyl)-3-tert-butylquinoxaline-7-carboxylate 1,4-di-N-oxide] | 164 ± 7.7 | 5.32 ± 3.8 | 6.28 ± 4.7 | –
131 ± 12.3 | Cc1c(C(N)=O)[n+]([O-])c2cc(C(=O)OC(C)C)ccc2[n+]1[O-] [Compound T-108, Isopropyl 2-amide-3-methyl-quinoxaline-7-carboxilate 1,4-di-N-óxide] | 221 ± 9.4 | 18.8 ± 2.8 | 12.8 ± 7.2 | –
5.2 ± 2.1 | CCOC(=O)c1c(C(F)(F)F)[n+]([O-])c2ccc(C(=O)OC(C)C)cc2[n+]1[O-] [Compound T-116, Isopropyl ethyl-3-trifluoromethylquinoxaline-2,7-dicarboxylate 1,4-di-N-oxide] | 14.5 ± 0.8 | 17.6 ± 2.6 | 49.9 ± 4 | –
72.2 ± 8 | CC(C)OC(=O)c1ccc2c(c1)[n+]([O-])c(C(=O)C(F)(F)C(F)(F)F)c(C(F)(F)F)[n+]2[O-] [Compound T-118, Isopropyl 2-pentafluorocarbonyl-3-trifluoromethylquinoxaline-7-carboxylate 1,4-di N-oxide] | 157 ± 6.3 | 0 | 34.4 ± 3.1 | –
> 130 | CCCOC(=O)c1ccc2c(c1)[n+]([O-])c(C(=O)Nc1ccccc1)c(C)[n+]2[O-] [Compound T-125, n-Propyl 2-phenylamide-3-methylquinoxaline-7-carboxylate 1,4-di-N-oxide] | > 261 | 0 | 35.6 ± 3.6 | –
> 163 | CCCOC(=O)c1ccc2c(c1)[n+]([O-])c(C(C)=O)c(C)[n+]2[O-] [Compound T-126, n-Propyl 2-acetyl-3-methylquinoxaline-7-carboxylate 1,4-di-N-oxide] | > 327 | 0 | 17.7 ± 3.1 | –
238 ± 11.5 | CCCOC(=O)c1ccc2c(c1)[n+]([O-])c(C(N)=O)c(C)[n+]2[O-] [Compound T-130, n-Propyl 2-amide-3-methylquinoxaline-7-carboxylate 1,4-di-N-oxide] | > 326 | 0.69 ± 1.2 | 4.65 ± 3.4 | –
8.74 ± 3.8 | CC1CS(=O)(=O)CCN1/N=C/c1ccc([N+](=O)[O-])o1 (centres unmarked) [Nfx, nifurtimox, reference compound] | 201 ± 12.5 | 62.6 ± 3.9 | 67.3 ± 5.4 | –
